Measured values from patent publication US20030096264A1, “Multi-parameter high throughput screening assays (MPHTS)” (Psychiatric Genomics, Inc., priority 2001, published 2003).

Test system: rat hippocampus
Test: In vivo expression profile in hippocampus of rats treated with valproate
Details: three weeks
Procedure: Specifically, in these experiments rats were treated with valproate, and gene expression levels in the hippocampus of each rat were measured for a plurality of different genes.
In more detail, twenty rats were divided into two groups, containing ten individuals each. One group of ten rats was used as the control group, whereas the other group functioned as the experimental group. Each rat in the experimental group was injected twice daily with 250 mg valproate for each kilogram of the rat's body mass. Each rat in the control group was similarly injected, but with a vehicle that contained no active ingredient. After three weeks dosing, the rats were sacrificed and their brains removed. Each rat's brain was divided in half. The hippocampus was then removed from each half and flash frozen. The half hippocampus tissue from the rats in each group was combined and total RNA was extracted from the tissue using TriReagent (Invitrogen Corp., Carlsbad Calif.) following the manufacturer's instructions. mRNA was purified with Oligotext (Qiagen Inc., Valencia Calif.) following the manufacturer's recommended protocol. mRNA quality and concentration was determined using the Agilent Bioanalyzer.
For expression profile analysis, mRNA from the pooled tissues of the control group was measured with Cy3 dye, and mRNA from the pooled tissues of the experimental group was measured with Cy5 dye. The labeled probes were then mixed and hybridized to a Rat Tox3 microarray (Incyte Genomics, Palo Alto Calif.). The relative signal intensity from each fluorescent dye was measured for each element (i.e., for each “gene”) on the microarray, normalized for differences, and the relative difference in expression level determined.
The relative differences in expression levels for various genes are plotted in FIG. 4. Specifically, each point on the plot represents a gene whose expression level was measured in both the experimental and control groups. Each point's position along the horizontal axis indicates the relative Cy3 signal intensity measured for that gene and reflects, therefore, the gene's expression in rats that were not treated with valproate. A point's position along the vertical axis indicates the relative Cy5 signal intensity measured for the corresponding gene, reflecting the gene's expression in the hippocampus of rats that were treated with valproate. […] By contrast, changes by at least a factor of 1.5 (i.e., θ≧1.5) indicate significant changes in expression in response to the valproate treatment (identified using a Rat Toxicology array from Incyte, Palo Alto, Calif.). These genes are listed in Table 5, below, along with GenBank Accession number for those genes. Again, a cDNA sequence for each gene listed in Table 5 is also provided in the accompanying Sequence Listing, and its sequence identifier is specified in Table 5 along with the GenBank Accession number.

CCCC(CCC)C(=O)O [valproate]
Φ: pol polyprotein (250 mg/kg twice daily, AAC31805 SEQ ID NO: 85): 1.9
Φ: CGI-83 protein (250 mg/kg twice daily, AAD34078 SEQ ID NO: 89): 1.9
Φ: CGI-86 protein (250 mg/kg twice daily, AAD34081 SEQ ID NO: 88): 1.9
Φ: Rat RT1-DOb gene, partial cds. (250 mg/kg twice daily, AB008110 SEQ ID NO: 63): 2.4
Φ: Mouse BAC-146N21 Chromosome X contains iduronate-2-sulfatase gene; complete sequence. (250 mg/kg twice daily, AC002315 SEQ ID NO: 96): 1.8
Φ: Mouse chromosome unknown clone rp21-657p21 strain 129S6/SvEvTac, complete sequence. (250 mg/kg twice daily, AC005743 SEQ ID NO: 62): 2.5
Φ: Mouse chromosome 18 clone mgsriii-pl-3084 strain RIII Fibroblast cell line C 127, complete sequence. (250 mg/kg twice daily, AC007665 SEQ ID NO: 75): 2.1
Φ: Mouse chromosome 10, clone RP21-247L16, complete sequence. (250 mg/kg twice daily, AC012302 SEQ ID NO: 87): 1.9
Φ: Mouse chromosome 18 clone RP23-16108, complete sequence. (250 mg/kg twice daily, AC020967 SEQ ID NO: 57): 3.1
Φ: Mouse TCR beta locus from bases 250554 to 501917 (section 2 of 3) of the complete sequence. (250 mg/kg twice daily, AE000664 SEQ ID NO: 58): 2.8
Φ: Mouse TCR beta locus from bases 250554 to 501917 (section 2 of 3) of the complete sequence. (250 mg/kg twice daily, AE000664 SEQ ID NO: 61): 2.5
Φ: Mouse TCR beta locus from bases 250554 to 501917 (section 2 of 3) of the complete sequence. (250 mg/kg twice daily, AE000664 SEQ ID NO: 79): 2
Φ: Rat strain Long Evans shaker myelin basic protein (Mbp) gene, intron 3, interrupted by ETn retrotransposon. (250 mg/kg twice daily, AF076337 SEQ ID NO: 65): 2.3
Φ: Mouse LDL receptor member LR3 mRNA, complete cds. (250 mg/kg twice daily, AF077847 SEQ ID NO: 70): 2.2
Φ: Mouse MHC class III region RD gene, partial eds; Bf, C2, G9A, NG22, G9, HSP70, HSP70, HSC70t, and smRNP genes, complete cds; G7A gene, partial cds; and unknown genes. (250 mg/kg twice daily, AF109906 SEQ ID NO: 86): 1.9
Φ: Mouse chromosome X clone BAC B22804, complete sequence. (250 mg/kg twice daily, AF121351 SEQ ID NO: 71): 2.2
Φ: Mouse (Mus musculus domesticus) X chromosome region similar to Human DXS963E, complete sequence. (250 mg/kg twice daily, AF130357 SEQ ID NO: 97): 1.8
Φ: Rat cytosolic branch chain aminotransferase BCATc mRNA, partial cds. (250 mg/kg twice daily, AF 165887 SEQ ID NO: 111): −1.5
Φ: Rat calmodulin mRNA, complete cds. (250 mg/kg twice daily, AF178845 SEQ ID NO: 102): −1.6
Φ: Mouse Naip3 gene, exon 1; neuronal apoptosis inhibitory protein 1 (Naip 1) and general transcription factor IIH polypeptide 2 (Gtf2h2) genes, complete cds. (250 mg/kg twice daily, AF242432 SEQ ID NO: 80): 2
Φ: Mouse BAC 171m12 MESDC1 (Mesdc1) and MESDC2 (Mesdc2) genes, complete cds. (250 mg/kg twice daily, AF311213 SEQ ID NO: 67): 2.3
Φ: Rat gene encoding tyrosine aminotransferase. (250 mg/kg twice daily, AJ010709 SEQ ID NO: 93): 1.8
Φ: Rat mRNA for Sulfotransferase K2. (250 mg/kg twice daily, AJ238392 SEQ ID NO: 77): 2
Φ: unnamed protein product (250 mg/kg twice daily, BAB15010 SEQ ID NO: 90): 1.8
Φ: hypothetical protein (250 mg/kg twice daily, CAB70864 SEQ ID NO: 117): −1.5
Φ: Rat mRNA for histamine N-methyltransferase, complete cds. (250 mg/kg twice daily, D10693 SEQ ID NO: 72): 2.1
Φ: Rat mRNA for delta-4-3-ketosteroid 5-beta-reductase, complete cds. (250 mg/kg twice daily, D17309 SEQ ID NO: 68): 2.2
Φ: Rat mRNA for 14-3-3 protein theta-subtype, complete cds. (250 mg/kg twice daily, D17614 SEQ ID NO: 109): −1.5
Φ: Mouse mRNA for plexin 2, complete cds. (250 mg/kg twice daily, D86949 SEQ ID NO: 95): 1.8
Φ: Rat clathrin heavy chain mRNA, complete cds. (250 mg/kg twice daily, J03583 SEQ ID NO: 112): −1.5
Φ: rat myelin basic protein (mbp) gene mrna. (250 mg/kg twice daily, K00512 SEQ ID NO: 99): −1.6
Φ: Rat long terminal repeat DNA sequence. (250 mg/kg twice daily, L19707 SEQ ID NO: 73): 2.1
Φ: Rat stress activated protein kinase alpha I mRNA, complete cds. (250 mg/kg twice daily, L27111 SEQ ID NO: 105): −1.5
Φ: Murine phosphoprotein phosphatase mRNA, complete cds. (250 mg/kg twice daily, M8 1475 SEQ ID NO: 114): −1.5
Φ: Mouse myelin proteolipid protein mRNA, complete cds. (250 mg/kg twice daily, M15442 SEQ ID NO: 103): −1.6
Φ: Rat nuclear-encoded mitochondrial ATP synthase beta-subunit mRNA, 5′ end. (250 mg/kg twice daily, M25301 SEQ ID NO: 107): −1.5
Φ: Rat calcincurin A mRNA, complete cds. (250 mg/kg twice daily, M29275 SEQ ID NO: 98): −1.7
Φ: Rat senescence marker protein 2B gene, exons 1 and 2. (250 mg/kg twice daily, M29302 SEQ ID NO: 81): 1.9
Φ: Rat thymosin beta-4 mRNA, complete cds. (250 mg/kg twice daily, M34043 SEQ ID NO: 104): −1.5
Φ: Rat cytochrome P450 IV A1 (CYP4A1) gene, complete cds. (250 mg/kg twice daily, M57718 SEQ ID NO: 64): 2.4
Φ: Rat (LxRN3) LINE 1 repeat element, ORF II. (250 mg/kg twice daily, M60824 SEQ ID NO: 66): 2.3
Φ: Rat (clone pRHx1) hemopexin mRNA, complete cds. (250 mg/kg twice daily, M62642 SEQ ID NO: 84): 1.9
Φ: Rat 3-alpha-hydroxysteroid dehydrogenase (3-alpha-HSD) mRNA, complete cds. (250 mg/kg twice daily, M64393 SEQ ID NO: 69): 2.2
Φ: Rat kallikrein-binding protein (RKBP) gene. (250 mg/kg twice daily, M67496 SEQ ID NO: 74): 2.1
Φ: {clone 6B1, intracisternal A-particle derived LTR fragment} [rats, Genomic, 208 nt]. (250 mg/kg twice daily, S51653 SEQ ID NO: 76): 2.1
Φ: {clone E512, estrogen induced gene} [rats, Sprague-Dawley, hypothalamus, mRNA Partial, 259 nt]. (250 mg/kg twice daily, S74327 SEQ ID NO: 118): −1.5
Φ: Rat Sprague-Dawley UDP-glucuronosyltransferase (UGT2B12) mRNA, complete cds. (250 mg/kg twice daily, U06273 SEQ ID NO: 59): 2.7
Φ: Rat LEW/N clone D0N544 satellite DNA sequence. (250 mg/kg twice daily, U06685 SEQ ID NO: 82): 1.9
Φ: Rat Eker rat-associated intracisternal-A-particle element. (250 mg/kg twice daily, U23776 SEQ ID NO: 83): 1.9
Φ: Rat Eker rat-associated intracisternal-A-particle element. (250 mg/kg twice daily, U23776 SEQ ID NO: 94): 1.8
Φ: Rat protein kinase C-binding protein NELL2 mRNA, complete cds. (250 mg/kg twice daily, U48245 SEQ ID NO: 106): −1.5
Φ: Mouse hippocampal amyloid precursor protein mRNA, complete cds. (250 mg/kg twice daily, U84012 SEQ ID NO: 116): −1.5
Φ: Rat mRNA for amyloidogenic glycoprotein (rAG), cognate of Human A4 amyloid precursor protein. (250 mg/kg twice daily, X07648 SEQ ID NO: 101): −1.6
Φ: Rat CaMII gene, exon 1 (and joined cds). (250 mg/kg twice daily, X13833 SEQ ID NO: 113): −1.5
Φ: Rat mRNA for Mx3 protein. (250 mg/kg twice daily, X52713 SEQ ID NO: 78): 2
Φ: Mouse rac1 gene. (250 mg/kg twice daily, X57277 SEQ ID NO: 115): −1.5
Φ: Rat mRNA for cdc2 promoter region. (250 mg/kg twice daily, X60767 SEQ ID NO: 92): 1.8
Φ: Rat L1 retroposon/pseudogene; 3′ flank. (250 mg/kg twice daily, X61298 SEQ ID NO: 60): 2.6
Φ: Rat mRNA for ubiquitin and ribosomal protein S27a. (250 mg/kg twice daily, X81839 SEQ ID NO: 108): −1.5
Φ: Rat MAL protein gene and mRNA. (250 mg/kg twice daily, X82557 SEQ ID NO: 110): −1.5
Φ: Rat mRNA for Myelin-associated/Oligodendrocytic Basic Protein-81. (250 mg/kg twice daily, X87900 SEQ ID NO: 100): −1.6
Φ: Rat mRNA for Tsx gene. (250 mg/kg twice daily, X99797 SEQ ID NO: 91): 1.8
Φ: Rat L1 retrotransposon mlvi2-rn14, 5′UTR and putative RNA binding protein 1 gene, partial cds. (250 mg/kg valproate twice daily, vs vehicle, U87602 SEQ ID NO: 56): 3.6
